# pIC50: −log10 of the molar value.
# Biological target: ATX (human His-tagged) (Homo sapiens (Human), UniProt Q13822)
# Test: Human ATX enzyme inhibition assay (fluorescence quenching, MR121 substrate)
# Assay type: biochemical
# Conditions: 30 nM ATX, 1 μM MR121 substrate, 30° C.
# From the text: Human ATX Enzyme Inhibition Assay
# Assay working solutions were made as follows:
row,SMILES,pIC50
1,"O=C(OCc1cc(Cl)cc(Cl)c1)N1CCC2(CC1)CN(C(=O)c1ccc3[nH]nnc3c1)C2 [Example 1, 3,5-Dichlorobenzyl 2-(1H-benzo[d][1,2,3]triazole-5-carbonyl)-2,7-diazaspiro[3.5]nonane-7-carboxylate]",7.82
2,"O=C(CCc1cc(Cl)cc(Cl)c1)N1CCC2(CC1)CN(C(=O)c1ccc3[nH]c(=O)oc3c1)C2 [Example 5.1, 6-(7-(3-(3,5-dichlorophenyl)propanoyl)-2,7-diazaspiro[3.5]nonane-2-carbonyl)benzo[d]oxazol-2(3H)-one]",7.21
3,"CS(=O)(=O)c1cc(Cl)cc(COC(=O)N2CCC3(CC2)CN(S(=O)(=O)c2ccc4[nH]c(=O)sc4c2)C3)c1 [Example 3.6, 3-chloro-5-(methylsulfonyl)benzyl 2-(2-oxo-2,3-dihydrobenzo[d]thiazol-6-ylsulfonyl)-2,7-diazaspiro[3.5]nonane-7-carboxylate]",7.17
4,"CS(=O)(=O)c1cc(Cl)cc(COC(=O)N2CCC3(CC2)CN(C(=O)c2cccc(S(N)(=O)=O)c2)C3)c1 [Example 1.18, 3-chloro-5-(methylsulfonyl)benzyl 2-(3-sulfamoylbenzoyl)-2,7-diazaspiro[3.5]nonane-7-carboxylate]",6.20
5,"O=C(OCc1ccc(OC(F)(F)F)cc1)N1CCC2(CC1)CN(C(=O)N1CCc3[nH]nnc3C1)C2 [Example 13, 4-(Trifluoromethoxy)benzyl 2-(4,5,6,7-tetrahydro-1H-[1,2,3]triazolo[4,5-c]pyridine-5-carbonyl)-2,7-diazaspiro[3.5]nonane-7-carboxylate]",8.52
6,"O=C(CCc1ccc(OC(F)(F)F)cc1)N1CCC2(CC1)CN(C(=O)C1CCc3[nH]nnc3C1)C2 (centres unmarked) [Example 1.28, 1-(2-(4,5,6,7-tetrahydro-1H-benzo[d][1,2,3]triazole-5-carbonyl)-2,7-diazaspiro[3.5]nonan-7-yl)-3-(4-(trifluoromethoxy)phenyl)propan-1-one]",6.96
7,"O=C(OCc1cc(Cl)cc(Cl)c1)N1CCC2(CC1)CN(Cc1ccc3[nH]c(=O)oc3c1)C2 [Example 4, 3,5-Dichlorobenzyl 2-((2-oxo-2,3-dihydro-benzo[d]oxazol-6-yl)methyl)-2,7-diaza-spiro[3.5]nonane-7-carboxylate]",6.26
8,"CC(C)c1cc(Cl)ccc1OCC(=O)N1CCC2(CC1)CN(C(=O)c1ccc3[nH]nnc3c1)C2 [Example 1.26, 1-(2-(1H-benzo[d][1,2,3]triazole-5-carbonyl)-2,7-diazaspiro[3.5]nonan-7-yl)-2-(4-chloro-2-isopropylphenoxy)ethanone]",8.10
9,"O=C(OCc1cc(Cl)cc(Cl)c1)N1CCC2(C1)CN(C(=O)c1ccc3[nH]nnc3c1)C2 [Example 1.14, 3,5-dichlorobenzyl 2-(1H-benzo[d][1,2,3]triazole-5-carbonyl)-2,6-diazaspiro[3.4]octane-6-carboxylate]",7.13
10,"O=C(c1ccc2[nH]nnc2c1)N1CC2(CCN(c3nnc(-c4cc(Cl)cc(Cl)c4)o3)CC2)C1 [Example 7, (1H-benzo[d][1,2,3]triazol-5-yl)(7-(5-(3,5-dichlorophenyl)-1,3,4-oxadiazol-2-yl)-2,7-diazaspiro[3.5]nonan-2-yl)methanone]",7.37
11,"O=C(OCc1ccccc1)N1CCC2(CC1)CN(C(=O)c1ccc3[nH]nnc3c1)C2 [Example 1.01, benzyl 2-(1H-benzo[d][1,2,3]triazole-5-carbonyl)-2,7-diazaspiro[3.5]nonane-7-carboxylate]",5.62
12,"O=C(NC1CC2(C1)CN(C(=O)OCc1ccccc1)C2)c1ccc2[nH]nnc2c1 [Example 1.07, 6-[(1H-benzotriazole-5-carbonyl)-amino]-2-aza-spiro[3.3]heptane-2-carboxylic acid benzyl ester]",5.38
13,"O=C(c1ccc2[nH]nnc2c1)N1CC2(CCN(C(=O)N3Cc4ccc(Cl)cc4C3)CC2)C1 [Example 10, (2-(1H-Benzo[d][1,2,3]-triazole-5-carbonyl)-2,7-diazaspiro[3.5]nonan-7-yl)(5-chloroisoindolin-2-yl)methanone]",5.46
14,"O=C(CCc1cc(Cl)cc(Cl)c1)N1CC2(CC(NS(=O)(=O)c3ccc4[nH]c(=O)oc4c3)C2)C1 [Example 3.3, 2-oxo-2,3-dihydro-benzooxazole-6-sulfonic acid {2-[3-(3,5-dichloro-phenyl)-propionyl]-2-aza-spiro[3.3]hept-6-yl}-amide]",7.23
15,"O=C(CCc1cc(Cl)cc(Cl)c1)N1CCC2(CC1)CN(C(=O)c1ccc3[nH]nnc3c1)C2 [Example 1.04, 1-(2-(1H-benzo[d][1,2,3]triazole-5-carbonyl)-2,7-diazaspiro[3.5]nonan-7-yl)-3-(3,5-dichlorophenyl)propan-1-one]",6.94

# Further lines, results first:
row,pIC50,SMILES
1,5.57,"O=C(c1cc(Cl)cc(Cl)c1)N1CCC2(CC1)CN(C(=O)c1ccc3[nH]nnc3c1)C2 [Example 6.3, (2-(1H-benzo[d][1,2,3]triazole-5-carbonyl)-2,7-diazaspiro[3.5]nonan-7-yl)(3,5-dichlorophenyl)methanone]"
2,5.90,"O=C(NC1CC2(C1)CN(C(=O)OCc1ccc(F)c(Cl)c1)C2)c1ccc2[nH]nnc2c1 [Example 12.21, 6-[(1H-benzotriazole-5-carbonyl)-amino]-2-aza-spiro[3.3]heptane-2-carboxylic acid 3-chloro-4-fluoro-benzyl ester]"
3,5.79,"O=C(OCc1cncc(Br)c1)N1CCC2(CC1)CN(C(=O)c1ccc3[nH]nnc3c1)C2 [Example 12.09, (5-bromopyridin-3-yl)methyl 2-(1H-benzo[d][1,2,3]triazole-5-carbonyl)-2,7-diazaspiro[3.5]nonane-7-carboxylate]"
4,6.86,"CS(=O)(=O)c1ccc(COC(=O)N2CCC3(CC2)CN(C(=O)c2ccc4[nH]nnc4c2)C3)c(Cl)c1 [Example 12.28, 2-chloro-4-(methylsulfonyl)benzyl 2-(1H-benzo[d][1,2,3]triazole-5-carbonyl)-2,7-diazaspiro[3.5]nonane-7-carboxylate]"
5,7.38,"O=C(NCc1c[nH]nn1)N1CC2(CCN(C(=O)OCc3ccc(OC(F)(F)F)cc3F)CC2)C1 [Example 14.01, [2-Fluoro-4-(trifluoromethoxy)phenyl]methyl 2-((1H-triazol-4-ylmethyl)carbamoyl)-2,7-diazaspiro[3.5]nonane-7-carboxylate]"
6,6.22,"O=C(c1ccc2[nH]nnc2c1)N1CCC2(CCN(C(=O)c3cc4cc(Cl)ccc4[nH]3)C2)C1 (centres unmarked) [Example 6.6, (7-(1H-benzo[d][1,2,3]triazole-5-carbonyl)-2,7-diazaspiro[4.4]nonan-2-yl)(5-chloro-1H-indol-2-yl)methanone]"
7,6.57,"O=C(OCc1csc(Br)c1)N1CCC2(CC1)CN(C(=O)c1ccc3[nH]nnc3c1)C2 [Example 12.14, (5-bromothiophen-3-yl)methyl 2-(1H-benzo[d][1,2,3]triazole-5-carbonyl)-2,7-diazaspiro[3.5]nonane-7-carboxylate]"
8,9.00,"O=C(OCc1ccc(C(F)(F)F)cc1F)N1CCC2(CC1)CN(C(=O)C1CCc3[nH]nnc3C1)C2 (centres unmarked) [Example 12.36, [2-fluoro-4-(trifluoromethyl)phenyl]methyl 2-(4,5,6,7-tetrahydro-1H-benzotriazole-5-carbonyl)-2,7-diazaspiro[3.5]nonane-7-carboxylate]"
9,6.21,"O=C(OCc1cnc(Cl)c(Cl)c1)N1CCC2(CC1)CN(C(=O)c1ccc3[nH]nnc3c1)C2 [Example 12.03, (5,6-dichloropyridin-3-yl)methyl 2-(1H-benzo[d][1,2,3]triazole-5-carbonyl)-2,7-diazaspiro[3.5]nonane-7-carboxylate]"
10,9.00,"Cc1cc(OC(F)(F)F)ccc1COC(=O)N1CCC2(CC1)CN(C(=O)C1CCc3[nH]nnc3C1)C2 (centres unmarked) [Example 12.37, [2-methyl-4-(trifluoromethoxy)phenyl]methyl 2-(4,5,6,7-tetrahydro-1H-benzotriazole-5-carbonyl)-2,7-diazaspiro[3.5]nonane-7-carboxylate]"
11,5.49,"O=C(c1ccc2[nH]nnc2c1)N1CC2(CCN(C(=O)[C@@H]3C[C@H]3c3cc(F)cc(F)c3)CC2)C1 (relative stereo) [Example 6.5, (2-(1H-benzo[d][1,2,3]triazole-5-carbonyl)-2,7-diazaspiro[3.5]nonan-7-yl)(trans-2-(3,5-difluorophenyl)cyclopropyl)methanone]"
12,5.42,"O=C(OCc1cncc(Cl)c1)N1CCC2(CC1)CN(C(=O)c1ccc3[nH]nnc3c1)C2 [Example 12.08, (5-chloropyridin-3-yl)methyl 2-(1H-benzo[d][1,2,3]triazole-5-carbonyl)-2,7-diazaspiro[3.5]nonane-7-carboxylate]"
13,6.64,"Cc1ccc(COC(=O)N2CC3(CC(NC(=O)c4ccc5[nH]nnc5c4)C3)C2)cc1Cl [Example 12.24, 6-[(1H-benzotriazole-5-carbonyl)-amino]-2-aza-spiro[3.3]heptane-2-carboxylic acid 3-chloro-4-methyl-benzyl ester]"
14,6.54,"O=C(OCc1cc(Cl)cc(Cl)n1)N1CCC2(CC1)CN(C(=O)c1ccc3[nH]nnc3c1)C2 [Example 12.10, (4,6-dichloropyridin-2-yl)methyl 2-(1H-benzo[d][1,2,3]triazole-5-carbonyl)-2,7-diazaspiro[3.5]nonane-7-carboxylate]"
15,6.48,"O=C(OCc1csc(Cl)c1)N1CCC2(CC1)CN(C(=O)c1ccc3[nH]nnc3c1)C2 [Example 12.12, (5-chlorothiophen-3-yl)methyl 2-(1H-benzo[d][1,2,3]triazole-5-carbonyl)-2,7-diazaspiro[3.5]nonane-7-carboxylate]"
16,5.67,"O=C(NC1CC2(C1)CN(C(=O)OCc1cccc(C(F)(F)F)c1)C2)c1ccc2[nH]nnc2c1 [Example 12.19, 6-[(1H-benzotriazole-5-carbonyl)-amino]-2-aza-spiro[3.3]heptane-2-carboxylic acid 3-trifluoromethyl-benzyl ester]"
17,8.60,"O=C(OCc1ccc(OCC(F)(F)F)cc1F)N1CCC2(CC1)CN(C(=O)C1CCc3nn[nH]c3C1)C2 (centres unmarked) [Example 12.38, 2-fluoro-4-(2,2,2-trifluoroethoxy)benzyl 2-(4,5,6,7-tetrahydro-1H-benzo[d][1,2,3]triazole-6-carbonyl)-2,7-diazaspiro[3.5]nonane-7-carboxylate]"
